Laboratory results from US9144570B2, “Method to enhance delivery of glutathione and ATP levels in cells” (Max International LLC, priority 2004, dated 2015).
“Also recorded” adds a separate entry of the source.

Key:
[1] = test system: Rat hepatocytes; test: Glutathione content of isolated rat hepatocytes after incubation with L-cysteine prodrugs; type: cell-based; conditions: for [GSH] Rel. to Controls. / [GSH] ± SE: 4-hr incubation, RibCys 1.0 mM, NAC 2.5 mM; for [GSH] ± SE: total GSH (GSH+GSSG)
Method: (§1) Rat hepatocytes were isolated following the methods of P. O. Seglen, Exper. Cell Res., 74, 450 (1972). After final plating, the hepatocytes were maintained in culture for 24 hr prior to use. Only primary cultures were used throughout the studies. […] Total GSH content (GSH+GSSG) was determined by a modification of the DTNB [5,5′-dithiobis(2-nitrobenzoic acid)] glutathione reductase recycling method of F. Tietze, Anal. Biochem., 27, 502 (1969). The GSH concentration in the sample was quantified by determining the cycling rate (ΔOD at 412 nm/min) of the sample.

[2] = test system: mice; conditions: cited from earlier work
[3] = test system: Rat hepatocytes; test: Inhibitory effect of BSO on GSH elevation elicited by L-cysteine prodrugs in rat hepatocytes; type: cell-based
Method: as §1

[4] = test system: mice; conditions: RibCys 8 mmol/kg; cited from earlier work
[5] = test system: mice; conditions: RibCys; 1 g/kg in mice; cited from earlier work
[6] = test system: tumor-bearing CDF1 mice; conditions: 8 mmol/kg i.p., cited from earlier work
[7] = test system: human subjects; conditions: administered directly to human subjects, wide dosage ranges; cited from earlier work
[8] = test system: healthy human subjects; conditions: oral, 8-10 g per day, adult; cited from earlier work
[9] = test system: canine heart; conditions: cited from earlier work
[10] = prodrug 1.0 mM, cells pre-exposed to BSO 0.2 mM

O=C(O)[C@@H]1CSC(C(O)C(O)C(O)CO)N1 (stereo partly drawn) [RibCys, 2(R,S)-D-ribo-1′,2′,3′,4′-Tetrahydroxybutylthiazolidine-4(R)-carboxylic Acid]
[GSH] Rel. to Controls. [1]: about 1.7
[GSH] Rel. to Controls. ([1]; listed as RibCys (Ia)): 1.7
[GSH] ± SE [1]: 61.2 ± 1.52 nmol/10^6 cells
protection against acetaminophen hepatic and renal toxicity ([2]; RibCys, 2 g/kg in mice): effective to protect against acetaminophen-induced hepatic and renal toxicity; also recorded: protect mice against acetaminophen hepatic and renal toxicity
[GSH] Rel. to Controls. [3, 10]: 0.5
[GSH] ± SE [3, 10]: 16.2 ± 3.60 nmol/10^6 cells
protection of mice exposed to cyclophosphamide [4]: deliver effective protective amounts of cysteine to mice exposed to cyclophosphamide
protection against radiation-induced bowel injury [5]: protect the large and small bowel against radiation injury; also recorded: protect mice against irradiation-induced bowel injury
GSH in the liver compared to untreated controls ([6]; 16-h time point): 1.5 fold
GSH in bladder relative to controls ([6]; maximal GSH content): 2.1 fold
GSH in muscle relative to control animals ([6]; maximal GSH content): 2.5 times
Kidney GSH relative to control values ([6]; maximal at 16 h): 1.6 times control values
GSH in implanted L1210 tumors relative to controls [6]: 1.2 fold

O=C1N[C@H](C(=O)O)CS1 [L-2-oxothiazolidine-4-carboxylate]
protection of mice from hepatotoxic dosages of acetaminophen [2]: protect mice from heptatotoxic dosages of acetaminophen

CC(=O)N[C@@H](CS)C(=O)O [N-Acetyl-L-cysteine (NAC), N-Acetyl-L-cysteine]
[GSH] Rel. to Controls. [1]: 1.3
GSH levels raised by ([1]; NAC, 2.5 times the concentration of the thiazolidine prodrugs): 30%
[GSH] ± SE [1]: 45.8 ± 1.27 nmol/10^6 cells
protection of mice from hepatotoxic dosages of acetaminophen [2]: protect mice from heptatotoxic dosages of acetaminophen
[GSH] Rel. to Controls. [3, 10]: 0.7
[GSH] ± SE [3, 10]: 25.5 ± 1.59 nmol/10^6 cells

CCCC1N[C@H](C(=O)O)CS1 (stereo partly drawn) [2(R,S)-n-propyl-thiazolidine-4R-carboxylate]
protection of mice from hepatotoxic dosages of acetaminophen [2]: protect mice from heptatotoxic dosages of acetaminophen

CCCCCC1N[C@H](C(=O)O)CS1 (stereo partly drawn) [2(R,S)-n-pentyl-thiazolidine-4R-carboxylate]
protection of mice from hepatotoxic dosages of acetaminophen [2]: protect mice from heptatotoxic dosages of acetaminophen

CCCCS(=N)(=O)CCC(N)C(=O)O (stereo not drawn) [BSO, Buthionine Sulfoximine]
[GSH] Rel. to Controls. ([3]; BSO 0.2 mM alone, no prodrug): 0.5
[GSH] ± SE ([3]; BSO 0.2 mM alone, no prodrug): 18.4 ± 2.08 nmol/10^6 cells

CC1N[C@H](C(=O)O)CS1 (stereo partly drawn) [2(R,S)-methyl-thiazolidine-4R-carboxylate]
protection of mice from hepatotoxic dosages of acetaminophen [2]: protect mice from heptatotoxic dosages of acetaminophen

O=C[C@H](O)[C@H](O)[C@H](O)CO [ribose]
toxicity [7]: essentially non-toxic
exercise capacity [8]: increase exercise capacity
decrease in the ATP recovery time ([9]; 80 mM ribose in normal saline, about 1 ml/min for about 24.0 hours, about 550-700 mg/kg): eight-fold decrease
recovery of ATP levels in heart recovering from ischemia ([9]; intravenous perfusion): recovery of ATP levels is enhanced
ATP levels in dogs subjected to ischemia (heart attack model) ([9]; ribose about 3 g/day for at least 5 days): effectively restored and maintained ATP levels
